Measured values published in patent publication US11299496B2, “Ligands for alpha-7 nicotinic acetylcholine receptors and methods of treating neurological and inflammatory conditions” (Northeastern University, priority 2014, dated 2022).

Target: T1, human alpha-7 nAChR (Homo sapiens, UniProt P36544)
T1 construct: expressed in transfected cells; host or cells: Xenopus laevis oocytes (cRNA injection)
Test: Two-electrode voltage clamp of alpha-7 nAChR expressed in Xenopus oocytes (net charge)
Format: cell-based
Conditions: for Charge Alone: compound alone acting as an allosteric agonist; for Charge Alone / Charge +C: area under the curve of current vs. time; for Charge +C: compound together with choline or ACh, includes PAM and ago-PAM activity; call rule not given here
Method: The human alpha-7 nAChR receptor clone was obtained from Dr. Jon Lindstrom {University of Pennsylvania, Philadelphia, Pa.), aid the RIC-3 clone from Dr. Millet Treinin (Hebrew University, Jerusalem, Israel) for the purpose of co-injection with a7 to improve the level and speed of receptor expression (Halevi et al., 2003). After linearization and purification of cloned cDNA's, RNA, transcripts were prepared rising the appropriate mMessage mMachine kit tiom Ambion (Austin, Tex.).
Expression in X, laeivis Oocytes
Oocytes were obtained from mature (>9 cm) female Xenopus laeivis African frogs (Nasco, Ft. Atkinson, Wis.). Frogs were anesthetized in 0.7 g/L solution of ethyl 3-aminobenzoate methanesulfonate buffered with sodium bicarbonate, and oocytes were surgically removed through an abdominal incision. Harvested oocytes were treated with 1.25 mg/ml collagenase (Worthington Biochemicals, Freehold, N.J.) in calcium-free Barth's solution (88 mM NaCl, 1 mM KCl, 2.38 mM NaHCO3, 0.82 mM MgSO4, 15 mM HEPES, 12 mg/L tetracycline, pH 7.6) for 3-4 hours to remove the follicular layer. Stage-5 oocytes were isolated and injected with 50 nL (5-20 ng) of human alpha-7 and RIC-3 cRNA. Suitable levels of receptor expression were typically achieved 2-6 days after injection of cRNA. For experiments involving the PAM 4BP-TQS/GAT-107, where standard levels of expression result in ion currents too large to be recorded in voltage clamp, experiments were typically conducted 1-3 days after RNA injection.
Two-electrode voltage clamp experiments were conducted using OpusXpress6000A (Molecular Devices, Sunnyvale, Calif.), an integrated system that provides automated impalement and voltage clamp of up to eight oocytes in parallel. Both the current and voltage electrodes were filled with 3 M KCl, and oocytes were clamped at a holding potential of −60 mV. Data were collected at 50 Hz and filtered at 20 Hz. The oocytes were bath-perfused with Ringer's solution (115 mM NaCl, 10 mM HEPES, 2.5 mM KCl, 1.8 mM CaCl2, pH 7.3), and agonist solutions were delivered from a 96-well drug plate using disposable tips. Flow rates were set at 2 mL/min, with each drug or control solution delivered in 12 s durations, followed˜by 181 s washouts with Ringer's unless noted otherwise.
Experimental Protocols and Data Analysis
Responses of human alpha-7 receptors to agonists were measured as both peek current and net charge measured over a 120 s period beginning with the compound application (Papke and Papke, 2002). […] In experiments involving positive allosteric modulators (PAMs), the fast desensitization of alpha-7 was eliminated, allowing peak currents to be used as a valid measurement of the receptor-mediated responses (Wang et al., 2012; Williams et al., 2011).
Oocytes received two control ACh applications prior to receiving any drug in order to establish a steady reference response, and they received one or more control ACh applications at the end of all experiments. For experiments involving drug incubation through bath applications, all responses were normalized to the average of two ACh control responses taken immediately prior to the switch of bath solution, for each cell individually. These normalization procedures had the effect of compensating for differing levels of receptor expression among the multiple oocytes used in each experiment. Each experiment was conducted on at least four oocytes, with mean values and standard errors (S.E.M.) calculated from their normalized responses. […]

T1 sequence (P36544 23-502): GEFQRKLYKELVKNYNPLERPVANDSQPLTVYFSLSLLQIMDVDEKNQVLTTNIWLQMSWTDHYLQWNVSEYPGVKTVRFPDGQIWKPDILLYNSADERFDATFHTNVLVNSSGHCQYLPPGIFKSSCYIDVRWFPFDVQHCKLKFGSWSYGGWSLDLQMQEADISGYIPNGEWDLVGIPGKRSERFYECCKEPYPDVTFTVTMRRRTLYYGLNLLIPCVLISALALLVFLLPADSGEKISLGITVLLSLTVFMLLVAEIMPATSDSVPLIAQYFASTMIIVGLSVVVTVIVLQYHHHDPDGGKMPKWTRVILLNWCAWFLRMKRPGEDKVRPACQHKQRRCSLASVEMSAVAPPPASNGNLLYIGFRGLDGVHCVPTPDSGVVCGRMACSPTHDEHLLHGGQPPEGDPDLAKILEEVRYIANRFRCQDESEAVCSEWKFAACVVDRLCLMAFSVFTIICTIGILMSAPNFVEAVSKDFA

Structure (SMILES)	Charge Alone	Charge +C	'ago' component / ago-PAM activity (in words)
NS(=O)(=O)c1ccc2c(c1)[C@H]1C=CC[C@H]1[C@@H](c1csc(Br)n1)N2 (stereo in doubt) [Compound 85, 4-(2-bromothiazol-4-yl)-3a,4,5,9b-tetrahydro-3H-cyclopenta[c]quinoline-8-sulfonamide]	10	166	
CCNS(=O)(=O)c1ccc2c(c1)[C@H]1C=CC[C@H]1[C@@H](c1ccc(Br)cc1)N2 [Compound 114]	Inactive	Inactive	
NS(=O)(=O)c1ccc2c(c1)[C@H]1C=CC[C@H]1[C@@H](c1c(F)c(F)c(F)c(F)c1F)N2 (stereo in doubt) [Compound 42, 4-(perfluorophenyl)-3a,4,5,9b-tetrahydro-3H-cyclopenta[c]quinoline-8-sulfonamide]		47	
NS(=O)(=O)c1ccc2c(c1)[C@H]1C=CC[C@H]1[C@@H](C1CCCCC1)N2 (stereo in doubt) [Compound 19, 4-cyclohexyl-3a,4,5,9b-tetrahydro-3H-cyclopenta[c]quinoline-8-sulfonamide]	Inactive	Inactive	
N#Cc1ccc([C@@H]2Nc3ccc(S(N)(=O)=O)cc3[C@H]3C=CC[C@H]32)cc1 (stereo in doubt) [Compound 6, 4-(4-cyanophenyl)-3a,4,5,9b-tetrahydro-3H-cyclopenta[c]quinoline-8-sulfonamide]	Inactive	Inactive	
CCNS(=O)(=O)c1ccc2c(c1)[C@@H]1C=CC[C@@H]1[C@@H](c1ccc(Br)cc1)N2 [Compound 113]	Inactive	Inactive	
CCCCNS(=O)(=O)c1ccc2c(c1)[C@H]1C=CC[C@H]1[C@@H](c1ccc(Br)cc1)N2 (stereo in doubt) [Compound 110, 4-(4-bromophenyl)-N-butyl-3a,4,5,9b-tetrahydro-3H-cyclopenta[c]quinoline-8-sulfonamide]	Inactive	Inactive	
NS(=O)(=O)c1ccc2c(c1)C1C=CCC1C(c1ccc(C(=O)O)cc1)N2 (stereo not drawn) [Compound 58, 4-(8-sulfamoyl-3a,4,5,9b-tetrahydro-3H-cyclopenta[c]quinolin-4-yl)benzoic acid]	Inactive	Inactive	
CCOC(=O)Nc1ccc([C@H]2Nc3ccc(S(N)(=O)=O)cc3[C@H]3C=CC[C@H]32)cc1 (stereo in doubt) [Compound 60, ethyl(4-(8-sulfamoyl-3a,4,5,9b-tetrahydro-3H-cyclopenta[c]quinolin-4-yl)phenyl)carbamate]		276	
NS(=O)(=O)c1ccc2c(c1)[C@H]1C=CC[C@H]1[C@@H](c1ccc(I)cc1)N2 [Compound 46, (3aR,4S,9bS)-4-(4-iodophenyl)-3a,4,5,9b-tetrahydro-3H-cyclopenta[c]quinoline-8-sulfonamide]	242	684	
NS(=O)(=O)c1ccc2c(c1)[C@H]1C=CC[C@H]1[C@@H](c1ccc(OCc3ccccc3)cc1)N2 [Compound 50, (3aR,4S,9bS)-4-(4-(benzyloxy)phenyl)-3a,4,5,9b-tetrahydro-3H-cyclopenta[c]quinoline-8-sulfonamide]	20	67	moderate ago-PAM activity
NS(=O)(=O)c1ccc2c(c1)[C@H]1C=CC[C@H]1[C@@H](c1ccccc1[N+](=O)[O-])N2 (stereo in doubt) [Compound 20, 4-(2-nitrophenyl)-3a,4,5,9b-tetrahydro-3H-cyclopenta[c]quinoline-8-sulfonamide]		52	
NS(=O)(=O)c1ccc2c(c1)[C@H]1C=CC[C@H]1[C@@H](c1scc(Br)c1Br)N2 (stereo in doubt) [Compound 38, 4-(3,4-dibromothiophen-2-yl)-3a,4,5,9b-tetrahydro-3H-cyclopenta[c]quinoline-8-sulfonamide]	18	1246	
